Test results taken from patent publication US20060002913A1, “Use of histamine and related compounds to treat disorders affecting muscle function” (priority 2004, published 2006).

Experiments:
[1] = target: membrane bound non-mitochondrial oxidase of stimulated phagocytes (Homo sapiens, UniProt P04839); settings: substrate of the oxidase that converts oxygen to superoxide; cited from earlier work
[2] = test system: patient suffering from Acute Myelogenous Leukemia (AML) and fibromyalgia; settings: given with IL-2, subcutaneously two times per day, 0.5 mg per injection, 21-day cycles repeated for 18 months with 21-day intermissions
Method: A patient, suffering from Acute Myelogenous Leukemia (AML) and fibromyalgia received treatment with histamine dihydrochloride and IL-2. Histamine dihydrochloride was administered subcutaneously two times per day at a dosage of 0.5 mg per injection for a period of 21 consecutive days.
The above 21-day cycle was repeated for 18 months with 21-day intermissions between cycles.

[3] = test system: patient with amyotrophic lateral sclerosis; settings: orally 1 mg/day for six months
Method: A patient with amyotrophic lateral sclerosis received treatment with histamine dihydrochloride. Histamine dihydrochloride was administered orally at a dosage of 1 mg/day for a period of six months.

[4] = test system: subjects suffering from muscle pain exacerbated by ROS and/or inflammatory cytokines; assay: Inhibition of muscle pain, self-rated pain scale 1 to 10 (Example 3); assay type: in vivo, human; settings: effective dose, after several weeks of treatment; groups of 10 subjects; vs placebo
Method: Subjects suffering from muscle pain exacerbated by ROS and/or inflammatory cytokines are identified. The subjects are asked to rate their pain on a scale of 1 to 10, with 1 indicating no pain or mild pain and 10 indicating severe pain. The subjects are then separated into 11 groups of 10 subjects each. […] Subjects in Group 11 are administered a placebo. After several weeks of treatment, subjects are again asked to rate their pain using the scale above.

[5] = test system: individuals suffering from multiple sclerosis; settings: orally 10, 30, 50, 100, 200 and 1,000 mg; vs placebo
Method: Individuals suffering from multiple sclerosis are identified. The individuals are asked to fill out a questionnaire regarding commonly experienced symptoms experienced by MS patients as well as the rate and severity of each symptom. The individuals are then separated into 7 groups of 20 individuals. […] Individuals in Group 7 are administered a placebo. Following the course of treatment, the individuals are again asked to fill out the same questionnaire.

Compound | Km [1] | muscle pain, self-rated on a scale of 1 to 10 [4] | also measured
NC(=O)C1=CN([C@@H]2O[C@H](COP(=O)(O)OP(=O)(O)OC[C@H]3O[C@@H](n4cnc5c(N)ncnc54)[C@H](O)[C@@H]3O)[C@@H](O)[C@H]2O)C=CC1 [NADH] | 450 µM |  | 
NC(=O)C1=CN([C@@H]2O[C@H](COP(=O)(O)OP(=O)(O)OC[C@H]3O[C@@H](n4cnc5c(N)ncnc54)[C@H](OP(=O)(O)O)[C@@H]3O)[C@@H](O)[C@H]2O)C=CC1 [NADPH] | 45 µM |  | 
Cl.Cl.NCCc1c[nH]cn1 [histamine dihydrochloride] |  | reduction in muscle pain | patient's symptoms (fibromyalgia muscle pain) [2]: symptoms disappeared while on treatment and returned during intermissions; progression of ALS [3]: arrested
NCCc1c[nH]cn1.O=P(O)(O)O [histamine phosphate] |  | reduction in muscle pain | 
NCCc1c[nH]cn1 [histamine] |  | reduction in muscle pain | rate and severity of symptoms associated with muscle damage (questionnaire) [5]: decrease in both the rate and severity of symptoms associated with muscle damage
NCCc1c[nH]c2ccc(O)cc12 [serotonin] |  | reduction in muscle pain | 
